Data as given in patent EP1093379B1, “USE OF INHIBITORS OF PROTEIN KINASE C EPSILON TO TREAT PAIN” (The Regents of the University of California, priority 1998, dated 2007).

Legend:
[1] = tested on: isoproterenol-induced hyperalgesia; test: Isoproterenol-induced mechanical hyperalgesia, paw-withdrawal threshold; format: in vivo, rat; conditions: intradermal; BIM 1 µg, WIPTIDE 100 ng; propranolol dose not given
Experimental: To examine the role of β-AR in epinephrine-induced hyperalgesia, propranolol, a β-AR antagonist, and isoproterenol, a selective β-AR agonist, were administered by intradermal injection.
The roles of PKC, protein kinase A ("PKA") and the µ-opioid receptor in mediating epinephrine-induced hyperalgesia were assessed by measuring the effects of: Rp-adenosine 3', 5'-cyclic monophosphate ("Rp-cAMPs") and WIPTIDE, both inhibitors of PKA; SQ22536, an inhibitor of adenylyl cyclase, an enzyme activated by PKA; bisindolymaleimide ("BIM"), a nonselective inhibitor of PKC isozymes; and [D-Ala^2,N-Me-Phe^4,Gly^5-ol]-enkephalin ("DAMGO"), p-opioid receptor agonist. The dose for each inhibitor was 1µg, except for WIPTIDE, which was administered in a 100ng dose. […] A large numeric value means more hyperalgesia.

[2] = tested on: prolonged PGE2-induced hyperalgesia; test: Chronic inflammatory pain model: prolonged hyperalgesia in carrageenan-sensitized rats (Randall-Selitto paw-withdrawal test); format: in vivo
Text: In order to investigate the role, if any, of PKCε in chronic inflammatory pain, the following model system for chronic inflammatory pain was developed. Rats received intradermal hind paw injections of carrageenan, an inflammatory agent. […] This was considered an acute response to the carrageenan-induced inflammation. Although administration of Prostaglandin E2 ("PGE2"), 5-hydroxytryptamine ("5-HT," serotonin) or CGS-21680 (an adenosine A2-selective receptor agonist) normally causes untreated rats (that is, rats that have not received carrageenan injections) to experience hyperalgesia lasting up to 6 hours, the hyperalgesia experienced by carrageenan-sensitized rats following administration of any one of these substances lasted up to 24 hours.
The prolonged PGE2-induced hyperalgesia normally seen in carrageenan-sensitized rats was inhibited by administration of BIM or εV1-2.
To examine whether protein kinase C modulates the processes by which a brief inflammatory event causes prolonged hyperalgesia many days later, rats received carrageenan and 1µg BIM injections at the same time. Hyperalgesia was measured 72 hours later, when the rats were treated PGE2. […] Therefore, administration of an inhibitor of PKC either at approximately the same time as the inflammatory agent giving rise to chronic, prolonged hyperalgesia or at about the same time as the hyperalgesia-inducing stimulus can lessen such chronic hyperalgesia.

[3] = tested on: PGE2-induced hyperalgesia; test: PGE2-induced mechanical hyperalgesia, paw-withdrawal threshold; format: in vivo, rat; conditions: same dose as for epinephrine: BIM 1 µg, WIPTIDE 100 ng
Experimental: The roles of PKC, protein kinase A ("PKA") and the µ-opioid receptor in mediating epinephrine-induced hyperalgesia were assessed by measuring the effects of: Rp-adenosine 3', 5'-cyclic monophosphate ("Rp-cAMPs") and WIPTIDE, both inhibitors of PKA; SQ22536, an inhibitor of adenylyl cyclase, an enzyme activated by PKA; bisindolymaleimide ("BIM"), a nonselective inhibitor of PKC isozymes; and [D-Ala^2,N-Me-Phe^4,Gly^5-ol]-enkephalin ("DAMGO"), p-opioid receptor agonist. The dose for each inhibitor was 1µg, except for WIPTIDE, which was administered in a 100ng dose. DAMGO was co-injected with epinephrine whereas the other inhibitors were applied 15 minutes prior to epinephrine injection. […] TABLE 1: Percentage decrease in nociceptive threshold in response to epinephrine, PGE2 or isoproterenol (each 100 ng) and effects of DAMGO, SQ22536, BIM, Rp-cAMPs (all 1 µg) or WIPTIDE (0.1 µg). A large numeric value means more hyperalgesia.
For mechanical nociceptive testing, the nociceptive flexion reflex was quantified using an Ugo Basile analgesymeter that applies a constantly increasing force measured in grams (Stoelting, Chicago, IL; K. O. Aley, J. D. Levine, J. Neurosci. 17, 8018-23 (1997)). The mean basal mechanical threshold for rats used in these experiments was 105.3+/-2.8 grams. The effects of hyperalgesia-inducing agents epinephrine (100ng) and PGE2 (100ng) on mechanical nociceptive thresholds were determined by measuring paw withdrawal frequencies at 15, 20, and 25 minutes after administration of the hyperalgesic agent and then calculating the mean of these three readings.

[4] = tested on: diabetes-induced hyperalgesia; test: Streptozotocin diabetes model, diabetes-induced hyperalgesia to mechanical stimuli; format: in vivo, Sprague-Dawley rats; conditions: four weeks after streptozotocin 70 mg/kg; intradermal sterile water then 1 µg
Experimental: Persons with uncontrolled or poorly controlled diabetes frequently experience hyperalgesia. The role of PKCε in diabetic neuropathy was examined in a model of diabetes in which male Sprague-Dawley rats receive subcutaneous injection of streptozotocin (70 mg/kg), a pancreatic β-cell toxin. These rats display hyperglycemia and glucosuria within 24 hours after the injection and show decreased nociceptive thresholds in response to mechanical stimuli administered by Ugo Basile analgesymeter in the hind paw after one week (Ahlgren, S.C. et al, J. Neurophysiology, 68, 2077-2085 (1992); Ahlgren, S.C. and Levine, J.D., Neuroscience 52, 1049-1055 (1993)). Four weeks after the streptozotocin injection, each rat received no treatment (n=8) or an intradermal injection of sterile water followed by a intradermal injections of (1) 1 µg bisindolymaleimide, a protein kinase C inhibitor (n=4; labeled "BIM" on Figure 12B), (2) 1 µg εV1-2, a PKCε inhibitory peptide (n=8; labeled "PKCεI" on Figure 12B), or (3) 1 µg S-VεV1-2, a scrambled version of the εV1-2 peptide (n=4; labeled "PCKε1 SCR" on Figure 12B) and were subsequently exposed to mechanical stimuli.

[5] = tested on: TTX-RINa; format: cell-based, rat
[6] = 1µg at the same time as carrageenan
[7] = 1µM epinephrine with 100µM BIM v. epinephrine alone

Structure (SMILES): CN(C)CCCn1cc(C2=C(c3c[nH]c4ccccc34)C(=O)NC2=O)c2ccccc21 [BIM, bisindolymaleimide I]
- effect on isoproterenol-induced hyperalgesia [1]: significantly attenuated
- effect on acute hyperalgesia normally induced by carrageenan exposure [2, 6]: attenuated
- effect on prolonged hyperalgesia on PGE2 72 or more hours after carrageenan exposure [2, 6]: attenuated
- effect on prolonged PGE2-induced hyperalgesia in carrageenan-sensitized rats ([2]; 1µg several days after the carrageenan injection, then PGE2): inhibited
- effect on PGE2-induced hyperalgesia [3]: had no effect
- effect on diabetes-induced decrease in nociceptive threshold [4]: markedly reduced
- mean peak current increase [5, 7]: 32%
- number of neurons responsive to epinephrine [5, 7]: 5 out of 11
- effect on epinephrine-induced potentiation of TTX-RINa ([5]; 1µM epinephrine, 2µM propranolol, 5µM phentolamine, 100µM Rp-cAMPs, 100µM BIM): significantly decreased
